Like-named read-outs stand apart in the source and are kept apart here.
How the values were obtained:
[1] = Compound stability in human liver microsomes; format: in vitro ADME; settings: for half-life at 5 μM: human liver microsomes 0.5 mg protein/mL, compound 5 μM, NADPH 1.0 mM, 37° C.; for CLint scaled at 5 μM: human liver microsomes, in vivo CLint extrapolated
[2] = Compound stability in rat liver microsomes; format: in vitro ADME; settings: pH 7.4; for half-life at 5 μM: rat liver microsomes 0.5 mg protein/mL, compound 5 μM, NADPH 1.0 mM, 37° C.; for CLint scaled at 5 μM: rat liver microsomes, in vivo CLint extrapolated
[3] = Pharmacokinetics after intravenous and oral administration in rats; format: in vivo, rat; settings: for CL/F / AUC(0-t) / half-life / Vd / clearance (CL): iv dosing; for bioavailability / AUC(0-t) / half-life / Vd: rat, plasma; for bioavailability: oral dose generally 5 or 10 mg/kg; for Vd: read-out: Vss

half-life at 5 μM [1] [min]	CLint scaled at 5 μM [1] [L/h/kg]	half-life at 5 μM [2] [min]	CLint scaled at 5 μM [2] [L/h/kg]	CL/F ([3]; dose 1 mg/kg) [L/h/kg]	bioavailability ([3]; iv dose 1 mg/kg) [%]	AUC(0-t) ([3]; dose 1 mg/kg) [µg·h/mL]	half-life ([3]; dose 1 mg/kg) [min]	Vd ([3]; dose 1 mg/kg) [L/kg]	clearance (CL) ([3]; dose 1 mg/kg) [L/h/kg]	clearance (CL) ([3]; dose 0.48 mg/kg) [L/h/kg]	bioavailability ([3]; iv dose 0.48 mg/kg) [%]	AUC(0-t) ([3]; dose 0.48 mg/kg) [µg·h/mL]	half-life ([3]; dose 0.48 mg/kg) [min]	Vd ([3]; dose 0.48 mg/kg) [L/kg]	SMILES
11.4	9.15	13.3	11.2		28.3	0.192	68.4	3.96	5.20						CC[C@H](Nc1ncnc(N)c1-c1ncn(C)n1)c1nc2cccc(Cl)c2c(=O)n1-c1ccc(F)cc1 [Ex. 50, (S)-2-(1-((6-amino-5-(1-methyl-1H-1,2,4-triazol-3-yl)pyrimidin-4-yl)amino)propyl)-5-chloro-3-(4-fluorophenyl)quinazolin-4(3H)-one]
42.4	2.46	25.3	5.89		33	0.203	54.6	5.15	4.92						C[C@H](Nc1ncnc(N)c1-c1nnn(C)n1)c1nc2cccc(Cl)c2c(=O)n1C1CC1 [Ex. 42, (S)-2-(1-((6-amino-5-(2-methyl-2H-tetrazol-5-yl)pyrimidin-4-yl)amino)ethyl)-5-chloro-3-cyclopropylquinazolin-4(3H)-one]
160	0.652	56.8	2.63		158	0.608	78	2.12	1.64						CC[C@H](Nc1ncnc(N)c1-c1ncnn1C)c1nc2cccc(Cl)c2c(=O)n1C1CC1 [Ex. 9, 2-((1S)-1-((6-amino-5-(1-methyl-1H-1,2,4-triazol-5-yl)pyrimidin-4-yl)amino)-propyl)-5-chloro-3-cyclopropylquinazolin-4(3H)-one]
6.1	17.1	3.86	38.6		20.2	0.3	42.6	3.65	3.35						CC[C@H](Nc1ncnc(N)c1-c1nc(COC)n(C)n1)c1nc2cccc(Cl)c2c(=O)n1C1CC1 [Ex. 46, (S)-2-(1-((6-amino-5-(5-(methoxymethyl)-1-methyl-1H-1,2,4-triazol-3-yl)pyrimidin-4-yl)amino)propyl)-5-chloro-3-cyclopropylquinazolin-4(3H)-one]
7.12	14.6	7.15	20.8		90	0.452	91.2	3.41	2.21						CC[C@H](Nc1ncnc(N)c1-c1nnn(C)n1)c1nc2cccc(F)c2c(=O)n1-c1ccccc1 [Ex. 43, (S)-2-(1-((6-amino-5-(2-methyl-2H-tetrazol-5-yl)pyrimidin-4-yl)amino)-propyl)-5-fluoro-3-phenylquinazolin-4(3H)-one]
43.8	2.38	2.43	61.3		4.37	0.196	39.6	4.1	5.12						CC[C@@H](Nc1ncnc(N)c1-c1ccon1)c1nc2cccc(Cl)c2c(=O)n1C1CC1 [Ex. 49, (R)-2-(1-((6-amino-5-(isoxazol-3-yl)pyrimidin-4-yl)amino)propyl)-5-chloro-3-cyclopropylquinazolin-4(3H)-one]
7.72	19.3	6.71	22.2		21.3	0.194	73.2	6.07	5.14						CC[C@H](Nc1ncnc(N)c1-c1nc(C)co1)c1nc2cccc(Cl)c2c(=O)n1C1CC1 [Ex. 52, (S)-2-(1-((6-amino-5-(4-methyloxazol-2-yl)pyrimidin-4-yl)amino)propyl)-5-chloro-3-cyclopropylquinazolin-4(3H)-one]
14.3	7.29	14.6	10.2												CC[C@H](Nc1ncnc(N)c1-c1nnn(C)n1)c1nc2cccc(Cl)c2c(=O)n1-c1cccc(F)c1 [Ex. 36, (S)-2-(1-((6-amino-5-(2-methyl-2H-tetrazol-5-yl)pyrimidin-4-yl)amino)propyl)-5-chloro-3-(3-fluorophenyl)quinazolin-4(3H)-one]

The next lines start with the compound.

SMILES	half-life at 5 μM [1] [min]	CLint scaled at 5 μM [1] [L/h/kg]	half-life at 5 μM [2] [min]	CLint scaled at 5 μM [2] [L/h/kg]	CL/F ([3]; dose 1 mg/kg) [L/h/kg]	bioavailability ([3]; iv dose 1 mg/kg) [%]	AUC(0-t) ([3]; dose 1 mg/kg) [µg·h/mL]	half-life ([3]; dose 1 mg/kg) [min]	Vd ([3]; dose 1 mg/kg) [L/kg]	clearance (CL) ([3]; dose 1 mg/kg) [L/h/kg]	clearance (CL) ([3]; dose 0.48 mg/kg) [L/h/kg]	bioavailability ([3]; iv dose 0.48 mg/kg) [%]	AUC(0-t) ([3]; dose 0.48 mg/kg) [µg·h/mL]	half-life ([3]; dose 0.48 mg/kg) [min]	Vd ([3]; dose 0.48 mg/kg) [L/kg]
CC[C@H](Nc1ncnc(N)c1-c1noc(C)n1)c1nc2ccccc2c(=O)n1-c1ccccc1F	11	13.6	2.69	55.4	7.07	8.88	0.143	63	7.21						
CC[C@H](Nc1ncnc(N)c1-c1ncc(C)o1)c1nc2cccc(C)c2c(=O)n1-c1ccccc1C [Ex. 28, (S)-2-(1-((6-amino-5-(5-methyloxazol-2-yl)pyrimidin-4-yl)amino)propyl)-5-methyl-3-(o-tolyl)quinazolin-4(3H)-one]	8.69	17.2	5.12	29.1		7.67	0.265	265	8.92	3.67					
CC[C@H](Nc1ncnc(N)c1-c1nnn(C)n1)c1nc2cccc(Cl)c2c(=O)n1C1CC1 [Ex. 54, (S)-2-(1-((6-amino-5-(2-methyl-2H-tetrazol-5-yl)pyrimidin-4-yl)amino)-propyl)-5-chloro-3-cyclopropylquinazolin-4(3H)-one]	42.8	2.44	99.1	1.5											
CC[C@H](Nc1ncnc(N)c1-c1noc(C)n1)c1nc2cccc(C)c2c(=O)n1C1CC1	19.6	7.58	20	7.46	2.42	40.5	0.393	158	6.07						
CC[C@H](Nc1ncnc(N)c1-c1ncn(C)n1)c1nc2cccc(Cl)c2c(=O)n1-c1ccccc1F [Ex. 45, (S)-2-(1-((6-amino-5-(1-methyl-1H-1,2,4-triazol-3-yl)pyrimidin-4-yl)amino)-propyl)-5-chloro-3-(2-fluorophenyl)quinazolin-4(3H)-one]	10.7	9.74	9	16.6		70.2	0.278	58.2	4.61	3.71					
CC[C@H](Nc1ncnc(N)c1-c1nc(C)co1)c1nc2cccc(C)c2c(=O)n1-c1ccccc1C [Ex. 29, (S)-2-(1-((6-amino-5-(4-methyloxazol-2-yl)pyrimidin-4-yl)amino)propyl)-5-methyl-3-(o-tolyl)quinazolin-4(3H)-one]	1.92	77.5	1.92	77.7		4.56	0.247	122	13.2	7.80					
CC[C@H](Nc1ncnc(N)c1-c1nnc(C)o1)c1nc2ccccc2c(=O)n1-c1ccccc1F [Ex. 24, (S)-2-(1-((6-amino-5-(5-methyl-1,3,4-oxadiazol-2-yl)pyrimidin-4-yl)amino)-propyl)-3-(2-fluorophenyl)quinazolin-4(3H)-one]	17.1	8.73	5.42	27.5							4.23	69.1	0.121	30.6	2.31
CC[C@H](Nc1ncnc(N)c1-c1ncn(C)n1)c1nc2cccc(C)c2c(=O)n1C1CC1 [Ex. 18, (S)-2-(1-((6-amino-5-(1-methyl-1H-1,2,4-triazol-3-yl)pyrimidin-4-yl)amino)propyl)-3-cyclopropyl-5-methylquinazolin-4(3H)-one]	16.5	6.33	9.24	16.1		60.6	0.307	53.4	2.94	3.25					
CC[C@H](Nc1ncnc(N)c1-c1nc(C(N)=O)n(C)n1)c1nc2cccc(Cl)c2c(=O)n1C1CC1 [Ex. 58, (S)-3-(4-amino-6-((1-(5-chloro-3-cyclopropyl-4-oxo-3,4-dihydroquinazolin-2-yl)propyl)amino)pyrimidin-5-yl)-1-methyl-1H-1,2,4-triazole-5-carboxamide]	61.8	1.69	122	1.23		106	0.58	143	5.03	1.57					
CC[C@H](Nc1ncnc(N)c1-c1noc(C)n1)c1nc2cccc(C)c2c(=O)n1-c1ccccc1C [Ex. 15, (S)-2-(1-((6-amino-5-(5-methyl-1,2,4-oxadiazol-3-yl)pyrimidin-4-yl)amino)-propyl)-5-methyl-3-(o-tolyl)quinazolin-4(3H)-one]	12.6	8.26	4.84	30.8		36.4	0.223	69.6	7.41	4.45					

Source: patent US9670194B2 (Calitor Sciences, LLC, priority 2013, dated 2017)
